Holding throughout (assay): Kinase assay, binding constants (Kd), kinase-tagged T7 phage, qPCR
The target of one assay is FGFR3 (Homo sapiens (Human), UniProt P22607). Summed up: (§1)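 Using T7 phage lysates from BL21-derived E. coli, compounds at 0.9% final DMSO competed for kinase binding to ligand-bearing magnetic beads. After elution, qPCR measured remaining kinase, and Kds were fitted by non-linear least squares with the Hill slope fixed at −1.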
The next assay has as its target FGFR4 (Homo sapiens (Human), UniProt P22455). Summed up:
as §1

The next assay deals with FGFR3 (V555M) (Homo sapiens (Human), UniProt P22607, V555M). The conditions noted are these: V555M mutant. Summed up:
as §1

The target of the next assay is FGFR2 (Homo sapiens (Human), UniProt P21802). Summed up:
as §1

The target in a further assay is FGFR1 (Homo sapiens (Human), UniProt P11362). Summed up:
as §1

Some results are limits rather than exact numbers.

FGFR1, sequence (P11362 22-822): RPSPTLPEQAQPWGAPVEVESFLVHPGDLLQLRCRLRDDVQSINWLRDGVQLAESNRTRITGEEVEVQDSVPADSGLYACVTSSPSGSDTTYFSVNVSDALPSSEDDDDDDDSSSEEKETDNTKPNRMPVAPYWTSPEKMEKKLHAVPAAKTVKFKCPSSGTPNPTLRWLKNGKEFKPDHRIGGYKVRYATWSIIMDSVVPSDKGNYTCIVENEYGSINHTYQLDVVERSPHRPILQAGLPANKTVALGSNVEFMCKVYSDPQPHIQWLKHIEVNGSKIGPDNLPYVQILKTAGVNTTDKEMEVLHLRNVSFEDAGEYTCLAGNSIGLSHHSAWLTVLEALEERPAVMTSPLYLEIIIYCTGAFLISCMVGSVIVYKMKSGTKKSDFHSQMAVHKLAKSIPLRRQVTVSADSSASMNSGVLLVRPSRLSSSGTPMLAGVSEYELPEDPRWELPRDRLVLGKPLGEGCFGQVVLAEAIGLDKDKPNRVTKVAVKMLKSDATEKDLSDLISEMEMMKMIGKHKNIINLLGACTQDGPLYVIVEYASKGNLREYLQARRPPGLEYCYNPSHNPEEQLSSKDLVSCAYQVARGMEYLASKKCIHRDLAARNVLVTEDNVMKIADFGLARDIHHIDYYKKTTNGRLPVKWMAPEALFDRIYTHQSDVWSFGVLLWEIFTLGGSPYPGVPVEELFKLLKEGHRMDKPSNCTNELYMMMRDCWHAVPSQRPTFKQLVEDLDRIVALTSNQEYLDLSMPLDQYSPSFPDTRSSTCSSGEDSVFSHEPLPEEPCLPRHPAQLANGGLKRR
FGFR3, sequence (P22607 23-806): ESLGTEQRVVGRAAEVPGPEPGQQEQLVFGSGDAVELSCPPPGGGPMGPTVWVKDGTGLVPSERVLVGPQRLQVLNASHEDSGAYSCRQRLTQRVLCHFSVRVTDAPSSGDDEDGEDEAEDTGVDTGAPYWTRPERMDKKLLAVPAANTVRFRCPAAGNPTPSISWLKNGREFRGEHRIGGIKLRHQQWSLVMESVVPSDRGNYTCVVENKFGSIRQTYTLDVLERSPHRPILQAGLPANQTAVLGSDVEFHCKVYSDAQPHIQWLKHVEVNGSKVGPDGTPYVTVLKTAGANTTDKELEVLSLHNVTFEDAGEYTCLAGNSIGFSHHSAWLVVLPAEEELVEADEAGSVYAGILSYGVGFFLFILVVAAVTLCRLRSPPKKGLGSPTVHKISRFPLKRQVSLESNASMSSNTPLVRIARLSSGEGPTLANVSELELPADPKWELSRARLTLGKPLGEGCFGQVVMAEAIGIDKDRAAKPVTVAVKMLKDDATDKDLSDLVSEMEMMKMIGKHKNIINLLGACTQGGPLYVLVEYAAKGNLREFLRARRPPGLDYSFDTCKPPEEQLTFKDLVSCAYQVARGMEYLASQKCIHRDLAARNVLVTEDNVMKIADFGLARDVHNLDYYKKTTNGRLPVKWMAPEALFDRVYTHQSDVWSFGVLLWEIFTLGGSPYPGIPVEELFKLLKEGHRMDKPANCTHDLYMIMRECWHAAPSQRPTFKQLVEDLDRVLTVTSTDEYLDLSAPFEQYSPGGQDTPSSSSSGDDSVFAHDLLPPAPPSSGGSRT
FGFR3 (V555M), sequence (P22607 23-806 V555M): as the sequence (P22607 23-806) above, with V533M counted along it
FGFR4, sequence (P22455 22-802): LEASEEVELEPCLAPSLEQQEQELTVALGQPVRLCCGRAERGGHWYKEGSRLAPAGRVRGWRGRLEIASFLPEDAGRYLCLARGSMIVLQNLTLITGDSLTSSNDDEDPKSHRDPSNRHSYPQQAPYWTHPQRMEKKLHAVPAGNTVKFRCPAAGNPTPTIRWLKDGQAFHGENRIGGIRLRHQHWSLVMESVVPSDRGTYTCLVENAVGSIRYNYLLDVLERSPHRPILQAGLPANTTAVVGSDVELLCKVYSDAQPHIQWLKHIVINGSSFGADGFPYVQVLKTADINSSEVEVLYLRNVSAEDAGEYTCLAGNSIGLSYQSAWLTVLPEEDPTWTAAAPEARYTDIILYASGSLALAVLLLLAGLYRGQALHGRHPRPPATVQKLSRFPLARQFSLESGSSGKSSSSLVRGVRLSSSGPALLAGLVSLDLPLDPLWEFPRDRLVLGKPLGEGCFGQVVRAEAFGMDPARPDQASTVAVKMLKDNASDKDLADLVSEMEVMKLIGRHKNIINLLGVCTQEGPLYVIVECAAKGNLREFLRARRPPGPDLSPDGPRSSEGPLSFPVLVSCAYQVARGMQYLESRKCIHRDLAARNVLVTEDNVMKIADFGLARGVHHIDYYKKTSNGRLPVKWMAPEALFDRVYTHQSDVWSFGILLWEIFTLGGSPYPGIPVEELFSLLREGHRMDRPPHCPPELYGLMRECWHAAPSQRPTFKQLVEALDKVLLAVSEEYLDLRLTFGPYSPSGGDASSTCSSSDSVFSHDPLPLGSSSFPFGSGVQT
FGFR2, sequence (P21802 22-821): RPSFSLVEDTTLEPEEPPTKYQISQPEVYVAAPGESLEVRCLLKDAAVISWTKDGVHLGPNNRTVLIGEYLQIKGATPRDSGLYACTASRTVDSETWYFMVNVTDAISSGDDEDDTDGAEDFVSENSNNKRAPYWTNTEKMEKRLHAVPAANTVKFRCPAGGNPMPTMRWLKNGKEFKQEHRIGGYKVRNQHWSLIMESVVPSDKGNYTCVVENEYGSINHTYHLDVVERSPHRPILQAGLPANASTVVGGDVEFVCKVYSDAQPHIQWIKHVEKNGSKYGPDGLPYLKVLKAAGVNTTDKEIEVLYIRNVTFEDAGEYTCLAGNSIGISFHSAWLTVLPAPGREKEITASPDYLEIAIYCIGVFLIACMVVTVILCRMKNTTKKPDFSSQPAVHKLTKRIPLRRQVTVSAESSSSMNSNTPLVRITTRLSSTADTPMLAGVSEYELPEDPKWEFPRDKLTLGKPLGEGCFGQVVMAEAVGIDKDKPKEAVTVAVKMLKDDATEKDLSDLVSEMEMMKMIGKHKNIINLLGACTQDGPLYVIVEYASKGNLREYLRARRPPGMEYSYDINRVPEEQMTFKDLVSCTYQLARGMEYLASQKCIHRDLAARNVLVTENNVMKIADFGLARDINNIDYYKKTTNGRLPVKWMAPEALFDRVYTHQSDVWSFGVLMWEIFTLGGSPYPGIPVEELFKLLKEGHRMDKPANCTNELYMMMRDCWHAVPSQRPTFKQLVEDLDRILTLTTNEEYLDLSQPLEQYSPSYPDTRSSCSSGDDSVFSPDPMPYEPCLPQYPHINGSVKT

As for `C[C@@H](Oc1ccc2[nH]nc(-c3ccc(N4CC5(COC5)C4)nc3)c2c1)c1c(Cl)cnnc1Cl` [Example 229, (R)-6-(5-(5-(1-(3,5-dichloropyridazin-4-yl)ethoxy)-1H-indazol-3-yl)pyridin-2-yl)-2-oxa-6-azaspiro[3.3]heptane], the Kd on FGFR3 was 20 to 100 nM; on FGFR4, greater than 300 nM; on FGFR3 (V555M), 20 to 100 nM; at FGFR2 it was 100 to 300 nM; on FGFR1 it was greater than 300 nM.
On to `C[C@@H](Oc1ccc2[nH]nc(-c3ccc(N4CC5(CN(CC(F)F)C5)C4)nc3)c2c1)c1c(Cl)cncc1Cl` [Example 230, (R)-5-(1-(3,5-dichloropyridin-4-yl)ethoxy)-3-(6-(6-(2,2-difluoroethyl)-2,6-diazaspiro[3.3]heptan-2-yl)pyridin-3-yl)-1H-indazole], for which the Kd on FGFR3, on FGFR4, at FGFR3 (V555M), at FGFR2 and on FGFR1 was 1 to 20 nM in each case.
Take `Cc1cc(-c2n[nH]c3ccc(O[C@H](C)c4c(C)cnnc4C)cc23)cnc1N1CCN2C(=O)NCC2C1` (stereo partly drawn) [Example 231, 7-(5-(5-((R)-1-(3,5-dimethylpyridazin-4-yl)ethoxy)-1H-indazol-3-yl)-3-methylpyridin-2-yl)hexahydroimidazo[1,5-a]pyrazin-3(2H)-one]: the Kd at FGFR3 lay in the range of 1 to 20 nM; at FGFR4, 1 to 20 nM; on FGFR3 (V555M), 1 to 20 nM; on FGFR2 it was 1 to 20 nM; at FGFR1, 20 to 100 nM.
Regarding `Cc1ncc(Cl)c([C@@H](C)Oc2ccc3[nH]nc(-c4ccc(N5CCC[C@@H]5CO)nc4)c3c2)c1Cl` [Example 232, [(2R)-1-[5-[5-[(1R)-1-(3,5-dichloro-2-methyl-4-pyridyl)ethoxy]-1H-indazol-3-yl]-2-pyridyl]pyrrolidin-2-yl]methanol], the Kd at FGFR3 was in the range of 1 to 20 nM; at FGFR4 it was 1 to 20 nM; at FGFR3 (V555M) it was 1 to 20 nM; on FGFR2 it was 20 to 100 nM; at FGFR1, 20 to 100 nM.
For the molecule `C[C@@H](Oc1ccc2[nH]nc(-c3ccc(N4CC5(C4)CN(S(C)(=O)=O)C5)nc3)c2c1)c1c(Cl)cnnc1Cl` [Example 233, (R)-5-(1-(3,5-dichloropyridazin-4-yl)ethoxy)-3-(6-(6-(methylsulfonyl)-2,6-diazaspiro[3.3]heptan-2-yl)pyridin-3-yl)-1H-indazole], the Kd at FGFR3 was 20 to 100 nM; on FGFR4, greater than 300 nM; on FGFR3 (V555M) it was 20 to 100 nM; on FGFR2, 100 to 300 nM; on FGFR1, greater than 300 nM.
Turning to `Cc1cc(-c2n[nH]c3ccc(O[C@H](C)c4c(Cl)cnc(C)c4Cl)cc23)cnc1N1CC(CO)(CO)C1` [Example 234, [1-[5-[5-[(1R)-1-(3,5-dichloro-2-methyl-4-pyridyl)ethoxy]-1H-indazol-3-yl]-3-methyl-2-pyridyl]-3-(hydroxymethyl)azetidin-3-yl]methanol], the Kd lay within 1 to 20 nM at FGFR3; 1 to 20 nM on FGFR4; 1 to 20 nM at FGFR3 (V555M); 100 to 300 nM at FGFR2; 100 to 300 nM at FGFR1.
Consider `Cc1cc(-c2n[nH]c3ccc(O[C@H](C)c4c(Cl)cnc(C)c4Cl)cc23)cnc1N1CC2(C1)CN(S(C)(=O)=O)C2` [Example 235, 5-[(1R)-1-(3,5-dichloro-2-methyl-4-pyridyl)ethoxy]-3-[5-methyl-6-(2-methylsulfonyl-2,6-diazaspiro[3.3]heptan-6-yl)-3-pyridyl]-1H-indazole], for which the Kd on FGFR3 lay within 1 to 20 nM; at FGFR4, 1 to 20 nM; at FGFR3 (V555M), 1 to 20 nM; on FGFR2 it was 100 to 300 nM; on FGFR1, 100 to 300 nM.
Consider `C[C@@H](Oc1ccc2[nH]nc(-c3ccc(N4CCC[C@@H]4CO)nc3)c2c1)c1c(Cl)cncc1Cl` [Example 236, ((R)-1-(5-(5-((R)-1-(3,5-dichloropyridin-4-yl)ethoxy)-1H-indazol-3-yl)pyridin-2-yl)pyrrolidin-2-yl)methanol], for which the Kd fell in the range of 1 to 20 nM at FGFR3; 1 to 20 nM at FGFR4; 1 to 20 nM at FGFR3 (V555M); 1 to 20 nM on FGFR2; 20 to 100 nM on FGFR1.
Turning to `C[C@@H](Oc1ccc2[nH]nc(-c3ccc(N4CCC[C@H]4CO)nc3)c2c1)c1c(Cl)cncc1Cl` [Example 237, ((S)-1-(5-(5-((R)-1-(3,5-dichloropyridin-4-yl)ethoxy)-1H-indazol-3-yl)pyridin-2-yl)pyrrolidin-2-yl)methanol], the Kd on FGFR3, on FGFR4, on FGFR3 (V555M), on FGFR2 and at FGFR1 was 1 to 20 nM throughout.
Consider `COC1CC2(C1)CN(c1ccc(-c3n[nH]c4ccc(O[C@H](C)c5c(Cl)cnc(C)c5Cl)cc34)cn1)C2` [Example 238, 5-[(1R)-1-(3,5-dichloro-2-methyl-4-pyridyl)ethoxy]-3-[6-(6-methoxy-2-azaspiro[3.3]heptan-2-yl)-3-pyridyl]-1H-indazole], for which the Kd fell in the range of 1 to 20 nM at FGFR3; 1 to 20 nM on FGFR4; 1 to 20 nM at FGFR3 (V555M); 20 to 100 nM on FGFR2; 20 to 100 nM at FGFR1.
For the molecule `COc1cc2[nH]nc(-c3cnc(N4CC5(C4)CN(S(C)(=O)=O)C5)nc3)c2cc1O[C@H](C)c1c(Cl)cncc1Cl` [Example 239, 5-[(1R)-1-(3,5-dichloro-4-pyridyl)ethoxy]-6-methoxy-3-[2-(2-methylsulfonyl-2,6-diazaspiro[3.3]heptan-6-yl)pyrimidin-5-yl]-1H-indazole], the Kd on FGFR3, on FGFR4, on FGFR3 (V555M), on FGFR2 and on FGFR1 was 1 to 20 nM in each case.
In the case of `COc1cc2[nH]nc(-c3cnc(N4CC5(C4)CN(S(C)(=O)=O)C5)nc3)c2cc1O[C@H](C)c1c(Cl)cnc(C)c1Cl` [Example 240, 5-[(1R)-1-(3,5-dichloro-2-methyl-4-pyridyl)ethoxy]-6-methoxy-3-[2-(2-methylsulfonyl-2,6-diazaspiro[3.3]heptan-6-yl)pyrimidin-5-yl]-1H-indazole], the Kd at FGFR3, on FGFR4, at FGFR3 (V555M), at FGFR2 and on FGFR1 was 1 to 20 nM in each case.
With `Cc1ncc(Cl)c([C@@H](C)Oc2ccc3[nH]nc(-c4ccc(N5CCC[C@H]5CO)nc4)c3c2)c1Cl` [Example 241, [(2S)-1-[5-[5-[(1R)-1-(3,5-dichloro-2-methyl-4-pyridyl)ethoxy]-1H-indazol-3-yl]-2-pyridyl]pyrrolidin-2-yl]methanol], the Kd on FGFR3 is 1 to 20 nM; on FGFR4, 1 to 20 nM; at FGFR3 (V555M) it was 1 to 20 nM; on FGFR2 it was 20 to 100 nM; on FGFR1, 1 to 20 nM.
Turning to `COc1cc2[nH]nc(-c3cnc(N4CC5(C4)CN(S(C)(=O)=O)C5)c(F)c3)c2cc1O[C@H](C)c1c(Cl)cncc1Cl` [Example 242, 5-[(1R)-1-(3,5-dichloro-4-pyridyl)ethoxy]-3-[5-fluoro-6-(2-methylsulfonyl-2,6-diazaspiro[3.3]heptan-6-yl)-3-pyridyl]-6-methoxy-1H-indazole], the Kd on FGFR3, on FGFR4, on FGFR3 (V555M), on FGFR2 and on FGFR1 was 1 to 20 nM throughout.
Take `COc1cc2[nH]nc(-c3cnc(N4CC5(C4)CN(S(C)(=O)=O)C5)c(F)c3)c2cc1O[C@H](C)c1c(Cl)cnc(C)c1Cl` [Example 243, 5-[(1R)-1-(3,5-dichloro-2-methyl-4-pyridyl)ethoxy]-3-[5-fluoro-6-(2-methylsulfonyl-2,6-diazaspiro[3.3]heptan-6-yl)-3-pyridyl]-6-methoxy-1H-indazole]: the Kd on FGFR3, on FGFR4, at FGFR3 (V555M), at FGFR2 and on FGFR1 was 1 to 20 nM in each case.
As to `Cc1ncc(Cl)c([C@@H](C)Oc2ccc3[nH]nc(-c4cnc(N5CC6(C5)CN(S(C)(=O)=O)C6)c(F)c4)c3c2)c1Cl` [Example 244, 5-[(1R)-1-(3,5-dichloro-2-methyl-4-pyridyl)ethoxy]-3-[5-fluoro-6-(2-methylsulfonyl-2,6-diazaspiro[3.3]heptan-6-yl)-3-pyridyl]-1H-indazole], the Kd lay within 1 to 20 nM on FGFR3; 1 to 20 nM on FGFR4; 1 to 20 nM at FGFR3 (V555M); 20 to 100 nM at FGFR2; 20 to 100 nM on FGFR1.
For `C[C@@H](Oc1ccc2[nH]nc(-c3ccc(N4CC5(CN(C(=O)C(F)(F)F)C5)C4)nc3)c2c1)c1c(Cl)cncc1Cl` [Example 245, 1-[6-[5-[5-[(1R)-1-(3,5-dichloro-4-pyridyl)ethoxy]-1H-indazol-3-yl]-2-pyridyl]-2,6-diazaspiro[3.3]heptan-2-yl]-2,2,2-trifluoro-ethanone], the Kd at FGFR3, at FGFR4, on FGFR3 (V555M), on FGFR2 and on FGFR1 was 1 to 20 nM in each case.
Turning to `C[C@@H](Oc1ccc2[nH]nc(-c3ccc(N4CC5(C4)CN(S(C)(=O)=O)C5)nc3)c2c1)c1c(Cl)cnnc1Cl` [Example 246, (R)-5-(1-(3,5-dichloropyridazin-4-yl)ethoxy)-3-(6-(6-(methylsulfonyl)-2,6-diazaspiro[3.3]heptan-2-yl)pyridin-3-yl)-1H-indazole], the Kd on FGFR3, at FGFR4, on FGFR3 (V555M), at FGFR2 and at FGFR1 was 1 to 20 nM in each case.
With `Cc1ncc(Cl)c([C@@H](C)Oc2ccc3[nH]nc(-c4ccc(N5CC6(CCC(O)C6)C5)nc4)c3c2)c1Cl` (stereo partly drawn) [Example 247, 2-[5-[5-[(1R)-1-(3,5-dichloro-2-methyl-4-pyridyl)ethoxy]-1H-indazol-3-yl]-2-pyridyl]-2-azaspiro[3.4]octan-6-ol], the Kd at FGFR3 lay in the range of 1 to 20 nM; at FGFR4, 1 to 20 nM; on FGFR3 (V555M), 1 to 20 nM; on FGFR2, 20 to 100 nM; at FGFR1 it was 20 to 100 nM.

The term Kd denotes the equilibrium constant for the complex coming apart. Read a low Kd as a tighter complex.

(Values after patent US20240109865A1, “INDAZOLE COMPOUNDS AS KINASE INHIBITORS” (TYRA BIOSCIENCES, INC., priority 2020, published 2024).)
